Data: US20260274855A1, “AMORPHOUS FORM OF ISOQUINOLINE DERIVATIVE” (vTv Therapeutics LLC, priority 2020, published 2026)
Where a name gives a salt, the structure may show the parent alone. Read-outs that look alike come from different tables or passages of the source.

Tests used:
Format in all cases: physicochemical
[1] = Hygroscopicity study, DVS test (25° C., 80% RH)
Protocol: Dynamic moisture adsorption (DVS) curves were collected on DVS Intrinsic of Surface Measurement Systems (SMS). The relative humidity at 25° C. was corrected with the deliquescent points of LiCl, Mg(NO3)2 and KCl.

[2] = Solubility in aqueous solutions at various pH's
[3] = 3 month stability study at 25° C. ± 2° C. and 60% RH
Protocol: A 3-month stability study was conducted at 25° C.±2° C. and 60% relative humidity.

[4] = 30-day stability study at 60° C.
Protocol: A 30-day stability study at 60° C. was conducted on a sample of material obtained from the method of Example 3.

[5] = Stability study at 40° C. and 100% RH for 7 days
Protocol: The stability of crystal form B of OAD2 hydrochloride and the amorphous form of OAD2 dihydrochloride was tested under conditions of 40° C./100% RH for 1 week.

[6] = Dissolution studies, four-part dissolution test method of Chinese Pharmacopoeia (2015 edition)
Protocol: Dissolution studies were conducted according to the four-part dissolution test method in the Chinese Pharmacopoeia (2015 edition) in the following solvents: methanol, acetic acid, ethanol, 0.1 mol/L HCl, acetonitrile, and 2-methyltetrahydrofuran. The dissolution study method involves weighing a fine powder (after grinding) of solid test product, attempting to dissolve in a proper volume of solvent by strongly shaking for 30 seconds every 5 minutes for 30 minutes, and recording observations after 30 minutes.

[7] = Month 0, listed as Ex. 3, dihydrochloride salt
[8] = Month 0, listed as Ex. 4, dihydrochloride salt
[9] = Month 0, listed as Ex. 5, dihydrochloride salt
[10] = Month 1, listed as Ex. 3, dihydrochloride salt
[11] = Month 1, listed as Ex. 4, dihydrochloride salt
[12] = Month 1, listed as Ex. 5, dihydrochloride salt
[13] = Month 2, listed as Ex. 3, dihydrochloride salt
[14] = Month 2, listed as Ex. 4, dihydrochloride salt
[15] = Month 2, listed as Ex. 5, dihydrochloride salt
[16] = Month 3, listed as Ex. 3, dihydrochloride salt
[17] = Month 3, listed as Ex. 4, dihydrochloride salt
[18] = Month 3, listed as Ex. 5, dihydrochloride salt

With `CC[C@@H](c1ccccc1)N1Cc2cc3c(cc2C[C@H]1C(=O)N[C@@H](Cc1ccc(-c2ccnc(C)c2C)cc1)C(=O)O)OC[C@H](c1ccc(OCc2ccc(Cl)c(Cl)c2)cc1)O3` [OAD2 dihydrochloride, (S)-2-(3S,8S)-3-(4-(3,4-dichlorobenzyloxy)phenyl-7-((S)-1-phenylpropyl)-2,3,6,7,8,9-hexahydro-[1,4]-dioxino[2,3-g]isoquinolin-8-ylformylamino)-3-(4-(2,3-dimethylpyridin-4-yl)phenyl)propionic acid dihydrochloride salt] the Moisture adsorption rate [1] was 8.3%, the solubility ([2]; Buffer pH 5) was “Not detectable” and the solubility ([2]; aqueous solution, aqueous buffer, thermodynamic from solid, Buffer pH 7, read-out: Solubility) was 90 µg/mL. The solubility ([2]; aqueous solution, aqueous buffer, thermodynamic from solid, Buffer pH 9, read-out: Solubility) was 50 µg/mL, the solubility ([2]; aqueous solution, aqueous buffer, thermodynamic from solid, solvent 0.1 NaOH, read-out: Solubility) was 17 µg/mL and the solubility ([2]; aqueous solution, simulated gastric fluid, thermodynamic from solid, solvent 0.1 HCl, read-out: Solubility) was > 51000 µg/mL. The solubility ([2]; solvent 0.1 HCl, listed as OAD2 dihydrochloride salt, dihydrochloride salt) was >51000 µg/mL, the Appearance ([3]; Month 0) was “Off-white” and the Solid form ([3]; Month 0) was “Amorphous”. For the same compound, the “Moisture Content” value [3, 7] was 1.7%, the “Percentage of external standard content” value [3, 7] was 98.1% and the Purity [3, 7] was 99.30%. For the same compound, the “Moisture Content” value [3, 8] was 2.5%, the “Percentage of external standard content” value [3, 8] was 97.1% and the Purity [3, 8] was 98.7%. The “Moisture Content” value [3, 9] was 1.6%, the “Percentage of external standard content” value [3, 9] was 97.1% and the Purity [3, 9] was 99.03%. For the same compound, the Appearance ([3]; Month 1) was “Off-white”, the Solid form ([3]; Month 1) was “Amorphous” and the “Moisture Content” value [3, 10] was 3.1%. The “Percentage of external standard content” value [3, 10] was 99.0%, the Purity [3, 10] was 99.25% and the “Moisture Content” value [3, 11] was 4.7%. The “Percentage of external standard content” value [3, 11] was 96.8%, the Purity [3, 11] was 98.6% and the “Moisture Content” value [3, 12] was 3.3%. The “Percentage of external standard content” value [3, 12] was 97.2%, the Purity [3, 12] was 98.90% and the Appearance ([3]; Month 2) was “Off-white”. For the same compound, the Solid form ([3]; Month 2) was “Amorphous”, the “Moisture Content” value [3, 13] was 3.4% and the “Percentage of external standard content” value [3, 13] was 98.7%. For the same compound, the Purity [3, 13] was 99.30%, the “Moisture Content” value [3, 14] was 3.6% and the “Percentage of external standard content” value [3, 14] was 97.6%. For the same compound, the Purity [3, 14] was 98.6%, the “Moisture Content” value [3, 15] was 4.1% and the “Percentage of external standard content” value [3, 15] was 97.8%. The Purity [3, 15] was 98.90%, the Appearance ([3]; Month 3) was “Off-white” and the Solid form ([3]; Month 3) was “Amorphous”. The “Moisture Content” value [3, 16] was 3.7%, the “Percentage of external standard content” value [3, 16] was 99.8% and the Purity [3, 16] was 99.23%. The “Moisture Content” value [3, 17] was 4.8%, the “Percentage of external standard content” value [3, 17] was 98.2% and the Purity [3, 17] was 98.5%. The “Moisture Content” value [3, 18] was 4.5%, the “Percentage of external standard content” value [3, 18] was 98.7% and the Purity [3, 18] was 98.90%. The Appearance ([4]; Day 0) was “Off-white”, the “Moisture Content” value ([4]; Day 0) was 1.6% and the “Percentage of external standard content” value ([4]; Day 0) was 97.1%. For the same compound, the Purity ([4]; Day 0) was 99.03%, the Solid form ([4]; Day 0) was “Amorphous” and the Appearance ([4]; Day 5) was “Off-white”. For the same compound, the “Moisture Content” value ([4]; Day 5) was 2.7%, the “Percentage of external standard content” value ([4]; Day 5) was 99.1% and the Purity ([4]; Day 5) was 98.7%. For the same compound, the Solid form ([4]; Day 5) was “Amorphous”, the Appearance ([4]; Day 10) was “Off-white” and the “Moisture Content” value ([4]; Day 10) was 2.4%. For the same compound, the “Percentage of external standard content” value ([4]; Day 10) was 97.5%, the Purity ([4]; Day 10) was 98.7% and the Solid form ([4]; Day 10) was “Amorphous”. For the same compound, the Appearance ([4]; Day 30) was “Pale-yellow”, the “Moisture Content” value ([4]; Day 30) was 2.5% and the “Percentage of external standard content” value ([4]; Day 30) was 97.4%. The Purity ([4]; Day 30) was 97.7%, the Solid form ([4]; Day 30) was “Amorphous” and the Decrease in purity ([5]; 40° C./100% RH for 1 week) was “no distinct decrease in purity”. For the same compound, the “HPLC (area %)” value ([5]; 40° C./100% RH/7 d) was 97.51 area %, the “HPLC (area %)” value ([5]; Initiation) was 98.91 area % and the Dissolution ([6]; 0.1 mol/L HCl, about 1 g sample in 9.99 mL, after 30 minutes, listed as 3, dihydrochloride salt) was “Incomplete”. For the same compound, the Dissolution ([6]; 0.1 mol/L HCl, about 1 g sample in 9.99 mL, after 30 minutes, listed as 4, dihydrochloride salt) was “Incomplete”, the Dissolution ([6]; 0.1 mol/L HCl, about 1 g sample in 9.99 mL, after 30 minutes, listed as 5, dihydrochloride salt) was “Incomplete” and the Dissolution ([6]; 0.1 mol/L HCl, about 1 g sample in 9.99 mL, after 30 minutes, listed as amorphous solid of OAD2 dihydrochloride salt, dihydrochloride salt) was “completely dissolved”. For the same compound, the Dissolution ([6]; 0.1 mol/L HCl, about 1 g sample in 29.99 mL, after 30 minutes) was “Complete”, the Dissolution ([6]; 2-methyl tetrahydrofuran, about 0.01 g sample in 101 mL, after 30 minutes, listed as 3, dihydrochloride salt) was “Incomplete” and the Dissolution ([6]; 2-methyl tetrahydrofuran, about 0.01 g sample in 101 mL, after 30 minutes, listed as 4, dihydrochloride salt) was “Incomplete”. The Dissolution ([6]; 2-methyl tetrahydrofuran, about 0.01 g sample in 101 mL, after 30 minutes, listed as 5, dihydrochloride salt) was “Incomplete”, the Dissolution ([6]; 2-methyl tetrahydrofuran, about 0.01 g sample in 101 mL, after 30 minutes, listed as amorphous solid of OAD2 dihydrochloride salt, dihydrochloride salt) was “incompletely dissolved” and the Dissolution ([6]; Acetonitrile, about 0.01 g sample in 101 mL, after 30 minutes, listed as 3, dihydrochloride salt) was “Incomplete”. The Dissolution ([6]; Acetonitrile, about 0.01 g sample in 101 mL, after 30 minutes, listed as 4, dihydrochloride salt) was “Incomplete”, the Dissolution ([6]; Acetonitrile, about 0.01 g sample in 101 mL, after 30 minutes, listed as 5, dihydrochloride salt) was “Incomplete” and the Dissolution ([6]; Acetonitrile, about 0.01 g sample in 101 mL, after 30 minutes, listed as amorphous solid of OAD2 dihydrochloride salt, dihydrochloride salt) was “incompletely dissolved”. The Dissolution ([6]; Ethanol, about 1 g sample in 9.99 mL, after 30 minutes, listed as 3, dihydrochloride salt) was “Incomplete”, the Dissolution ([6]; Ethanol, about 1 g sample in 9.99 mL, after 30 minutes, listed as 4, dihydrochloride salt) was “Incomplete” and the Dissolution ([6]; Ethanol, about 1 g sample in 9.99 mL, after 30 minutes, listed as 5, dihydrochloride salt) was “Incomplete”. For the same compound, the Dissolution ([6]; Ethanol, about 1 g sample in 9.99 mL, after 30 minutes, listed as amorphous solid of OAD2 dihydrochloride salt, dihydrochloride salt) was “completely dissolved”, the Dissolution ([6]; Ethanol, about 1 g sample in 29.99 mL, after 30 minutes) was “Complete” and the Dissolution ([6]; Methanol, about 1 g sample in 9.99 mL, after 30 minutes, listed as 3, dihydrochloride salt) was “Complete”. For the same compound, the Dissolution ([6]; Methanol, about 1 g sample in 9.99 mL, after 30 minutes, listed as 4, dihydrochloride salt) was “Complete”, the Dissolution ([6]; Methanol, about 1 g sample in 9.99 mL, after 30 minutes, listed as 5, dihydrochloride salt) was “Complete” and the Dissolution ([6]; Methanol, about 1 g sample in 9.99 mL, after 30 minutes, listed as amorphous solid of OAD2 dihydrochloride salt, dihydrochloride salt) was “completely dissolved”. The Dissolution ([6]; acetic acid, about 10 mL of solvent) was “completely dissolved”.
